Measurements taken from US12331094B2 (Bayer Aktiengesellschaft, priority 2018, dated 2025).
Positions of bridges follow the written chain, without caps; N, C: chain ends. Residues, ends and D or L forms follow the SMILES beside them.

How the values were obtained:
[1] = target: T1, insulin degrading enzyme (IDE) (Rattus norvegicus, UniProt P35559); assay: Sensitivity towards proteolytic degradation by IDE (reporter cell activity after incubation); conditions: 4 hours incubation with 0.6 μg/ml IDE at 37° C., then reporter cell activity
T1 sequence (P35559 1-1019): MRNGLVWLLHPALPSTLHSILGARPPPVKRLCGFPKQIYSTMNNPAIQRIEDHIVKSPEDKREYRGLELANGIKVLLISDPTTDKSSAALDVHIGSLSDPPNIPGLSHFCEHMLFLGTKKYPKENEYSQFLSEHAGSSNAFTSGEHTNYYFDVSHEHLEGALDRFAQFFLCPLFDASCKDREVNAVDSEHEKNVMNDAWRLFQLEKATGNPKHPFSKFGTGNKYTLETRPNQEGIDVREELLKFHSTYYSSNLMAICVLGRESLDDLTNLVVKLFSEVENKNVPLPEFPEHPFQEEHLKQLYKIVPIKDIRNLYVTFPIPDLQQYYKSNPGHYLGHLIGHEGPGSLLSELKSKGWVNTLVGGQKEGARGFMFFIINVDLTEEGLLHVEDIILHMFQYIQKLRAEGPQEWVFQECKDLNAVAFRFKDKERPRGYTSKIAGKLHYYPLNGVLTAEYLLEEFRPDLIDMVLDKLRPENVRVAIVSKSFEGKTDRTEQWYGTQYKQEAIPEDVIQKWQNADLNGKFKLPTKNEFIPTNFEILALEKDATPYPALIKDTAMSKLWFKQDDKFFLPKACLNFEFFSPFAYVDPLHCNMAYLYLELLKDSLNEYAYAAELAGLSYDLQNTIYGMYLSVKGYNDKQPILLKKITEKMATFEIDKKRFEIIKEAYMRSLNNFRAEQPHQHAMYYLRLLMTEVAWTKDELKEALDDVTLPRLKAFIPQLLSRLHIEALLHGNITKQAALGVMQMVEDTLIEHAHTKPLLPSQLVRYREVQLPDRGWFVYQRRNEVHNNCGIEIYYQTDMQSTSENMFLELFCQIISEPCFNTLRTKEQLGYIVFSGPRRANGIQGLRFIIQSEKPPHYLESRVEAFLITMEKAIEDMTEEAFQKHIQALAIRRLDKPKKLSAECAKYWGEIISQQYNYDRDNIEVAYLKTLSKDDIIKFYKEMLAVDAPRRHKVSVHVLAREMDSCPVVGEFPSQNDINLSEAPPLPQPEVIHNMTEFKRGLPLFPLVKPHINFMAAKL

[2] = target: T2, neutral endopeptidase (NEP) (Homo sapiens, UniProt P08473); assay: Sensitivity towards proteolytic degradation by NEP (reporter cell activity after incubation); format: in vitro ADME; conditions: 4 hours incubation with 0.6 μg/ml NEP at 37° C., then reporter cell activity
T2 construct: purchased R&D Systems 1182-ZNC
T2 sequence (P08473 52-750 limits assumed): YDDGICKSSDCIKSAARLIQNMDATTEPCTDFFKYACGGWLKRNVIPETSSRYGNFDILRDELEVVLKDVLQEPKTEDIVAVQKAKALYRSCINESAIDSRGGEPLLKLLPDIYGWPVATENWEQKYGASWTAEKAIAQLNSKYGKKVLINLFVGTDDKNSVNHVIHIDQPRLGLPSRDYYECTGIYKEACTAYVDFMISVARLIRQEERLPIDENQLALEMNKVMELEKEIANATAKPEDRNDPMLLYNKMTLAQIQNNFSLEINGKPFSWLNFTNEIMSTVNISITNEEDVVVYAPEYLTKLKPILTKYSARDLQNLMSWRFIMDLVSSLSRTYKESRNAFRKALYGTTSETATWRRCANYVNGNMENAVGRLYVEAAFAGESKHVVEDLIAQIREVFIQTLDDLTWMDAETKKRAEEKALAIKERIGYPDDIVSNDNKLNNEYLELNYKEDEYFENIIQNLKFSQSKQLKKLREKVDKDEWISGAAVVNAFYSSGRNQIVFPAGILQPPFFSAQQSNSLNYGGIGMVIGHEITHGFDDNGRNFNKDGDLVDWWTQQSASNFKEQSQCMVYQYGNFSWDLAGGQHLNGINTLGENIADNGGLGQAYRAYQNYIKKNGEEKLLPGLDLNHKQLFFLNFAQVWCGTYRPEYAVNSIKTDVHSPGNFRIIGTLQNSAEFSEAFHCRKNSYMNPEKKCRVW

[3] = system: PE-contracted aortic rings; assay: Vasorelaxation of isolated phenylephrine-contracted rat aortic rings
Description: All experiments were conducted in accordance with institutional guidelines and approved by the local committee on animal experiments. Male Sprague-Dawley rats (weighing 250-300 g) were anesthetized with pentobarbital sodium (40 mg/kg i.p.), killed by decapitation, and exsanguinated. The thoracic aorta was excised and placed in ice-cold Krebs buffer of the following composition: 130 mM NaCl, 14.9 mM NaHCO3, 5.5 mM dextrose, 4.7 mM KCl, 1.18 mM KH2PO4, 1.17 mM MgSO47H2O, and 1.6 mM CaCl22H2O. The vessel was pinned in a Sylgard Petri dish filled with chilled Krebs' solution, cleaned of fat and connective tissue, and cut into ring segments of approximately 3 to 4 mm in length. […] Changes in isometric force were recorded using a PowerLab data acquisition system (software Lab Chart 7.0)
After the equilibration period, aortic rings were challenged with 80 mM KCl to check tissue viability. Next, the endothelial integrity of the preparations was determined by verifying the responsiveness to acetylcholine (ACh, 1 μM) in vessels pre-contracted with Phenylephrine (PE, 1 μM). After wash-out and a period of equilibration, Phenylephrine (PE, 1 μM) was used to induce contraction, thereafter natriuretic peptides and natriuretic peptide engrafted IgGs were evaluated for vasorelaxation.

[4] = system: spontaneously hypertensive rats; assay: Radiotelemetric blood pressure in conscious spontaneously hypertensive rats; format: in vivo, rat; conditions: 500 μg dose intraperitoneally
Description: Blood pressure and heart rate were monitored in freely moving conscious animals by radiotelemetry (Data Sciences International). Female spontaneously hypertensive rats (SHR/N Crl BR, Charles River) with a body weight of 210-300 g were used for these studies. All animals were housed in individual cages at 22-24° C. ambient temperature and maintained on a 12-hour light/dark cycle with free access to standard laboratory rat chow and water ad libitum. Telemeter (HD-10, DSI) implantation was performed a minimum of 14 days before animals were used for blood pressure measurements. Surgery was performed under aseptic conditions. After shaving the abdominal wall, a midline abdominal incision was made, and the fluid-filled sensor catheter was inserted upstream into the exposed descending aorta between the iliac bifurcation and the renal arteries. According to the DSI guidelines the tip of the telemetric catheter was located caudal to the renal arteries and secured by tissue adhesive. The transmitter body was affixed to the inner peritoneal wall before closure of the abdomen. […] Data are expressed as % of basal values±SEM of at least 4 animals per group. The basal value for each animal was calculated as the average of the values measured in two hours prior to substance application (7:00-9:00 AM). Data are then expressed as averages every half hour, starting 15 minutes post application. […]

Row | proteolytic degradation by IDE [1] | proteolytic degradation by NEP [2] | Molecule | vasodilation in PE-contracted aortic rings [3] | Potency (log EC50 values) ([3]; vasodilation, endothelium-intact rat aortic rings contracted by phenylephrine (1 μM)) | drop in mean arterial blood pressure (MAP) [4] | duration of effect [4] [h]
1 | high sensitivity | high sensitivity | CC[C@H](C)[C@@H]1NC(=O)[C@H](CCCNC(=N)N)NC(=O)[C@H](CC(=O)O)NC(=O)[C@H]([C@@H](C)CC)NC(=O)[C@H](CCCCN)NC(=O)[C@H](CCC(N)=O)NC(=O)CNC(=O)[C@H](Cc2ccccc2)NC(=O)[C@@H](NC(=O)[C@H](CO)NC(=O)[C@H](CO)NC(=O)[C@H](CO)NC(=O)[C@H](Cc2c[nH]cn2)NC(=O)[C@H](C)NC(=O)[C@H](CCSC)NC(=O)[C@H](CCCCN)NC(=O)[C@H](CO)NC(=O)[C@@H](N)CC(N)=O)CSSC[C@@H](C(=O)N[C@@H](CC(=O)O)C(=O)NCC(=O)N[C@@H](CC(C)C)C(=O)N[C@@H](CCCNC(=N)N)C(=O)N[C@@H](CC(C)C)C(=O)N[C@@H](Cc2ccccc2)C(=O)O)NC(=O)CNC(=O)[C@H](CC(C)C)NC(=O)[C@H](CCCNC(=N)N)NC(=O)[C@H](CO)NC(=O)[C@H](C(C)C)NC(=O)[C@H](C)NC(=O)CNC1=O [BNP, Brain Natriuretic Peptide, reference compound] (H-NSKMAHSSSCFGQKIDRIGAVSRLGCDGLRLF-OH; disulfide 10-26; N-terminus and C-terminus assumed) |  |  |  | 
2 |  |  | ANP peptide: Rat ANP peptide (ADH-GM-10057T, Santai Labs) used as a reference (SLRRSSCFGGRIDRIGAQSGLGCNSFRY) [reference compound] | dose-dependent vasodilation | −7.4 | approximately 25% | 6 to 8
